Measured values: the NIST ThermoML archive (doi:10.1021/je025538u)

Experiments:
[1] = 101.33 kPa, Liquid
[2] = cn = amount concentration of the nth substance listed, in mol/dm3; details: 101.3 kPa, Liquid

CCC(C)O (stereo not drawn) [butan-2-ol]
[1]
Details | mass density [kg/m3] | viscosity [mPa·s]
293.15 K | 806.6 | 3.663
303.15 K | 799.3 | 2.527
313.15 K | 792.2 | 1.801
333.15 K | 778 | 1.025

CCCCCCCCCCCC(=O)O [dodecanoic acid] + CCC(C)O
[2]
Details | mass density, 293.15 K [kg/m3] | mass density, 303.15 K [kg/m3] | mass density, 313.15 K [kg/m3] | mass density, 333.15 K [kg/m3] | viscosity, 293.15 K [mPa·s] | viscosity, 303.15 K [mPa·s] | viscosity, 313.15 K [mPa·s] | viscosity, 333.15 K [mPa·s]
c1 = 0.0103 | 806.38 | 798.71 | 791.02 | 778.39 | 3.58 | 2.547 | 1.81 | 1.05
c1 = 0.05 | 807.27 | 800.23 | 793.39 | 779.62 | 3.665 | 2.548 | 1.818 | 1.04
c1 = 0.1003 | 807.29 | 800.56 | 794.11 | 780.76 | 3.7 | 2.573 | 1.851 | 1.07
c1 = 0.15 | 808.85 | 801.14 | 794.51 | 782 | 3.688 | 2.585 | 1.865 | 1.08
c1 = 0.2001 | 808.76 | 801.85 | 794.64 | 782.9 | 3.744 | 2.624 | 1.877 | 1.1
c1 = 0.35 | 812.86 | 805.19 | 797.47 | 785.3 | 3.841 | 2.704 | 1.951 | 1.15

CCCCCCCCCCCCCCCC(=O)O [hexadecanoic acid] + CCC(C)O
[2]
Details | mass density, 293.15 K [kg/m3] | mass density, 303.15 K [kg/m3] | mass density, 313.15 K [kg/m3] | mass density, 333.15 K [kg/m3] | viscosity, 293.15 K [mPa·s] | viscosity, 303.15 K [mPa·s] | viscosity, 313.15 K [mPa·s] | viscosity, 333.15 K [mPa·s]
c1 = 0.01 | 807.66 | 799.68 | 792.63 | – | 3.53 | 2.464 | 1.751 | –
c1 = 0.05 | 807.67 | 800.09 | 792.74 | 782.3 | 3.616 | 2.499 | 1.789 | 1.09
c1 = 0.1 | 809.21 | 801.34 | 794.66 | 782.9 | 3.613 | 2.512 | 1.808 | 1.08
c1 = 0.1501 | 810.16 | 802.89 | 795.01 | 783.19 | 3.7 | 2.585 | 1.85 | 1.13
c1 = 0.2001 | 810.6 | 802.96 | 795.11 | 783.51 | 3.828 | 2.665 | 1.921 | 1.14
c1 = 0.3501 | 813.04 | 806.24 | 799.34 | 787.5 | 4.056 | 2.834 | 2.045 | 1.27

CCCCCCCCCCCCCCCCCC(=O)O [octadecanoic acid] + CCC(C)O
[2]
Details | mass density, 293.15 K [kg/m3] | mass density, 303.15 K [kg/m3] | mass density, 313.15 K [kg/m3] | mass density, 333.15 K [kg/m3] | viscosity, 293.15 K [mPa·s] | viscosity, 303.15 K [mPa·s] | viscosity, 313.15 K [mPa·s] | viscosity, 333.15 K [mPa·s]
c1 = 0.01 | 806.45 | 798.83 | 792.46 | – | 3.611 | 2.499 | 1.766 | –
c1 = 0.05 | 806.9 | 799.7 | 792.65 | 782.79 | 3.679 | 2.531 | 1.808 | 1.09
c1 = 0.1 | 813.95 | 806.09 | 796.45 | 783.92 | 3.795 | 2.466 | 1.79 | 1.1
c1 = 0.15 | 810.78 | 803.5 | 796.91 | 784.23 | 3.785 | 2.627 | 1.886 | 1.16
c1 = 0.2 | 811.62 | 804.54 | 797.76 | 785.41 | 3.799 | 2.584 | 1.881 | 1.16
c1 = 0.3501 | 814.68 | 806.92 | 800.5 | 788.89 | 4.177 | 2.919 | 2.017 | 1.36
